Laboratory results from patent publication EP1202975B1, “SUBSTITUTED POLYCYCLIC ARYL AND HETEROARYL PYRAZINONES USEFUL FOR SELECTIVE INHIBITION OF THE COAGULATION CASCADE” (Pharmacia Corporation, priority 1999, dated 2000).
Where two headings read alike, the source gives them in different places.

Assays:
Human factor Xa = Human factor Xa (Homo sapiens, UniProt P00742); test: Xa Assay
TF-VIIa = molecular target: T1, TF-VIIa (Homo sapiens, UniProt P08709); test: TF-VIIa Assay; format: biochemical
T1 construct: 2nM recombinant human factor VIIa; purchased American Diagnostica, Greenwich CT; host or cells: soluble TF made in house in E. coli

[1] = read-out: IC50 or % Inhibition Factor Xa (30 µM), cells given as a plain number (IC50)
[2] = read-out: IC50 or % Inhibition TF-VIIa (30 µM); cells given as a plain number (IC50)
[3] = cells given as a plain number (IC50); read-out: IC50 or % Inhibition TF-VIIa (30 µM)

Chain of Human factor Xa (P00742 235-488 limits assumed): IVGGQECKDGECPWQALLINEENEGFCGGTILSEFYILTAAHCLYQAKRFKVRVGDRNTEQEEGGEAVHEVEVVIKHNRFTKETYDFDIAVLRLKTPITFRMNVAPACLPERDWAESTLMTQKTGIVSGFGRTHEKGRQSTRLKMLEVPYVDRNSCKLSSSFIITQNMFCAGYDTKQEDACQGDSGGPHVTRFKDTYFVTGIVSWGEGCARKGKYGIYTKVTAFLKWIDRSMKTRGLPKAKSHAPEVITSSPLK
Chain of Human factor Xa (P00742 41-179 limits assumed): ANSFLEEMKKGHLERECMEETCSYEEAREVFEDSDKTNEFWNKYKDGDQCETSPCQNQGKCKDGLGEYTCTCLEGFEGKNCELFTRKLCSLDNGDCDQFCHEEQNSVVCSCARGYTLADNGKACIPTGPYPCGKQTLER
T1 sequence (P08709 213-466 limits assumed): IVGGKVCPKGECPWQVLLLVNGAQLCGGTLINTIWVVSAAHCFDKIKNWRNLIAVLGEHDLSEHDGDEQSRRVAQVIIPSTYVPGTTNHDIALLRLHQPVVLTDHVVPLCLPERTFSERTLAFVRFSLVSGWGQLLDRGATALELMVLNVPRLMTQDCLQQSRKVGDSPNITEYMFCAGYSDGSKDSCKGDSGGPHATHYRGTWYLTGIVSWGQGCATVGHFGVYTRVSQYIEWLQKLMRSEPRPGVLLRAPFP
T1 sequence (P08709 61-212 limits assumed): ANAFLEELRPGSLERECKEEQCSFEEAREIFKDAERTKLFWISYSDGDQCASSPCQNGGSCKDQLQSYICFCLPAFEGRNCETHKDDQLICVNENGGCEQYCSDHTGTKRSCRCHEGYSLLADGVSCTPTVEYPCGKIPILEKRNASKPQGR
T1 sequence (P13726 33-251 partner limits assumed): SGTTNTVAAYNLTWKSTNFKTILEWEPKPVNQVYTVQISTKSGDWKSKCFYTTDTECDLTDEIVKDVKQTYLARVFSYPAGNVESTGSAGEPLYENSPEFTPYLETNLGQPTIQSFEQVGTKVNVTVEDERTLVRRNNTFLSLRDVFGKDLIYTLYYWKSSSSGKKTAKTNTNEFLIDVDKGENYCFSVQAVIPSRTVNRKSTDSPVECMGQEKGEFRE

Row | Compound | IC50 (Human factor Xa; [1]) [µM] | IC50 (TF-VIIa; [2]) [µM] | IC50 (TF-VIIa; [3]) [µM] | also measured
1 | N=C(N)c1ccc(CNC(=O)Cn2c(-c3ccccc3)c(Cl)nc(NC3CC3)c2=O)cc1 [1507-31] | > 30 | 3.7 |  | 
2 | N=C(N)c1ccc(CNC(=O)Cn2c(-c3ccccc3)c(Cl)nc(NC3CCS(=O)(=O)C3)c2=O)cc1 (stereo not drawn) [1522-46] | > 30 |  | 1 | 
3 | N=C(N)c1ccc(CNC(=O)Cn2c(-c3cccc(N)c3)c(Cl)nc(NC3CCC3)c2=O)cc1 [1526-23] | > 30 | 0.03 |  | 
4 | N=C(N)c1ccc(CNC(=O)Cn2c(-c3cccc(N)c3)cnc(NC3CCC3)c2=O)cc1 [compound 92] |  |  | 0.053 | IC50 or % Inhibition Factor Xa (30 µM) (Human factor Xa; % inhibition at 30 µM): 18%@30
5 | N=C(N)c1ccc(CNC(=O)Cn2c(-c3ccc(F)cc3)c(Cl)nc(NCc3ccccc3)c2=O)cc1 [1515-07] | > 30 | 14.2 |  | 
6 | N=C(N)CCNc1nc(Cl)c(-c2ccccc2)n(CC(=O)NCc2ccc(C(=N)N)cc2)c1=O [Example 50] |  |  | 0.5 | IC50 or % Inhibition Factor Xa (30 µM) (Human factor Xa; % inhibition at 30 µM): 39%
7 | Cc1ccccc1-c1c(Cl)nc(NCCc2ccccc2)c(=O)n1CC(=O)NCc1ccc(C(=N)N)cc1 [compound 78] |  |  | 0.43 | IC50 or % Inhibition Factor Xa (30 µM) (Human factor Xa; % inhibition at 30 µM): 16%@30
8 | N=C(N)c1ccc(CNC(=O)Cn2c(-c3ccccc3Cl)c(Cl)nc(NC3CCC3)c2=O)cc1 [1515-16] | > 30 | 8.8 |  | 
9 | N=C(N)NCCCC(NC(=O)Cn1c(-c2cccc(N)c2)c(Cl)nc(NCc2ccccc2)c1=O)C(=O)c1nccs1 (stereo not drawn) [compound 91] | 7 |  | 0.07 | 
10 | COc1ccccc1-c1c(Cl)nc(NC2CCC2)c(=O)n1CC(=O)NCc1ccc(C(=N)N)cc1 [1515-14] | > 30 | 2.9 |  | 
11 | N=C(N)c1ccc(CNC(=O)Cn2c(-c3cccc([N+](=O)[O-])c3)c(Cl)nc(NCCc3ccccc3)c2=O)cc1 [compound 77] | > 30 |  | 2.52 | 
12 | N=C(N)NCCCNC(=O)Cn1c(-c2ccccc2)cnc(NCCc2ccccc2)c1=O [Example 11] |  |  | 91 | IC50 (Human factor Xa): > 100 µM
13 | N=C(N)c1ccc(CNC(=O)Cn2c(-c3ccccc3)c(Cl)nc(NCCN3CCCC3)c2=O)cc1 [1522-08] | > 30 | 0.27 |  | 
14 | CC[C@H](C)Nc1nc(Cl)c(-c2cccc(N)c2)n(CC(=O)NCc2ccc(C(=N)N)cc2)c1=O [1526-09] | > 30 | 0.03 |  | 
15 | CNc1cccc(-c2c(Cl)nc(NC(C)C)c(=O)n2CC(=O)NCc2ccc(C(=N)N)cc2)c1 [compound 96] | > 30 |  | 0.26 | 
16 | N=C(N)c1ccc(CNC(=O)Cn2c(-c3ccccc3F)c(Cl)nc(NCCc3ccccc3)c2=O)cc1 [1515-35] | > 30 |  | 1.8 | 
17 | C#CCNc1nc(Cl)c(-c2cccc(N)c2)n(CC(=O)NCc2ccc(C(=N)N)cc2)c1=O [1526-21] | > 30 | 0.05 |  | 
18 | CC(C)CNc1nc(Cl)c(-c2ccccc2)n(CC(=O)NCc2ccc(C(=N)N)cc2)c1=O [1507-32] | > 30 |  | 21.3 | 
19 | N=C(N)NCCCNc1nc(Cl)c(-c2ccccc2)n(CC(=O)NCc2ccc(C(=N)N)cc2)c1=O [Example 47] |  |  | 0.66 | IC50 (Human factor Xa): 10.6 µM
20 | CCC(C)Nc1nc(Cl)c(-c2cccc(N)c2)n(CC(=O)NCc2ccc(C(=N)N)cc2)c1=O (stereo not drawn) [1526-14] | > 30 | 0.04 |  | 
21 | N=C(N)NCCC[C@H](NC(=O)Cn1c(Cc2ccccc2)cnc(NCCc2ccccc2)c1=O)C(=O)c1nccs1 [Example 7] |  |  | 0.2 | IC50 (Human factor Xa): 3 µM
22 | N=C(N)c1ccc(CNC(=O)Cn2c(-c3ccccc3)c(Cl)nc(NCCNc3ncccc3C(F)(F)F)c2=O)cc1 [1522-38] | > 30 | 1 |  | 
23 | Nc1cccc(-c2c(Cl)nc(NC3CCC3)c(=O)n2CC(=O)NCCc2ccccc2)c1 [compound 89] |  |  |  | IC50 or % Inhibition Factor Xa (30 µM) (Human factor Xa; % inhibition at 30 µM): 5%@30; IC50 or % Inhibition TF-VIIa (30 µM) (TF-VIIa; % inhibition at 30 µM): 5%@30
24 | N=C(N)c1ccc(CNC(=O)Cn2c(-c3cccc(N)c3)c(Cl)nc(NC[C@@H]3CCCO3)c2=O)cc1 [1526-33] | > 30 | 0.26 |  | 
25 | C=CCNc1nc(Cl)c(-c2cccc(N)c2)n(CC(=O)NCc2ccc(C(=N)N)cc2)c1=O [1526-19] | > 30 | 0.04 |  | 

Row | Compound | IC50 (Human factor Xa; [1]) [µM] | IC50 (TF-VIIa; [2]) [µM] | IC50 (TF-VIIa; [3]) [µM] | also measured
26 | N=C(N)c1ccc(CNC(=O)Cn2c(-c3ccccc3)c(Cl)nc(NCc3cccc(Cl)c3)c2=O)cc1 [1507-38] | > 30 | 16 |  | 
27 | Cc1ccc(CCNc2nc(Cl)c(-c3ccccc3)n(CC(=O)NCc3ccc(C(=N)N)cc3)c2=O)cc1 [1507-45] | > 30 | 7.3 |  | 
28 | N=C(N)c1ccc(CNC(=O)Cn2c(-c3cccs3)c(Cl)nc(NC3CCC3)c2=O)cc1 [1515-18] | > 30 | 0.6 |  | 
29 | CC(C)(C)CCNc1nc(Cl)c(-c2ccccc2)n(CC(=O)NCc2ccc(C(=N)N)cc2)c1=O [1522-18] | > 30 |  | 1.7 | 
30 | CCN1CC(Nc2nc(Cl)c(-c3ccccc3)n(CC(=O)NCc3ccc(C(=N)N)cc3)c2=O)CN1CC [1522-35] | > 30 | 4 |  | 
31 | N=C(N)NCCCCCNC(=O)Cn1c(-c2ccccc2)cnc(NCCc2ccccc2)c1=O [Example 13] |  |  | > 100 | IC50 (Human factor Xa): > 100 µM
32 | N#CCCNc1nc(Cl)c(-c2ccccc2)n(CC(=O)NCc2ccc(C(=N)N)cc2)c1=O [Example 53] |  |  | 0.3 | IC50 or % Inhibition Factor Xa (30 µM) (Human factor Xa; % inhibition at 30 µM): 7%
33 | N=C(N)c1ccc(CNC(=O)Cn2c(-c3ccccc3)c(Cl)nc(NCc3ccc(C(=N)N)cc3)c2=O)cc1 [Example 51] |  |  | 0.65 | IC50 (Human factor Xa): 9.68 µM
34 | Cc1cccc(-c2cnc(NCCc3ccccc3)c(=O)n2CC(=O)NCc2ccc(C(=N)N)cc2)c1 [compound 83] | > 30 |  | 0.75 | 
35 | N=C(N)c1ccc(CNC(=O)Cn2c(-c3cccc(N)c3)c(Cl)nc(NC3CCC3)c2=O)cc1 [compound 90] |  |  | 0.02 | IC50 or % Inhibition Factor Xa (30 µM) (Human factor Xa; % inhibition at 30 µM): 16%@30
36 | N=C(N)NCCC[C@H](NC(=O)Cn1c(-c2ccccc2)cnc(NCCc2ccccc2)c1=O)C(=O)c1nccs1 [Example 6] |  |  | 0.1 | IC50 (Human factor Xa): 1 µM
37 | N=C(N)c1ccc(CNC(=O)Cn2c(-c3ccccc3C(F)(F)F)c(Cl)nc(NC3CCC3)c2=O)cc1 [1515-24] | > 30 | 1.6 |  | 
38 | Cc1cccc(-c2c(Cl)nc(NCCc3ccccc3)c(=O)n2CC(=O)NCc2ccc(C(=N)N)cc2)c1 [compound 81] |  |  | 1 | IC50 or % Inhibition Factor Xa (30 µM) (Human factor Xa; % inhibition at 30 µM): 33%@30
39 | N=C(N)c1ccc(CNC(=O)Cn2c(-c3ccccc3)cnc(NC(=O)Nc3cc(Cl)cc(Cl)c3)c2=O)cc1 [Example 108] |  |  | 4.13 | IC50 or % Inhibition Factor Xa (30 µM) (Human factor Xa; % inhibition at 30 µM): 20%
40 | N=C(N)NCCC[C@H](NC(=O)Cn1c(CCc2ccccc2)cnc(NCCc2ccccc2)c1=O)C(=O)c1nccs1 [Example 8] |  |  | 3 | IC50 (Human factor Xa): 1 µM
41 | N=C(N)c1ccc(CNC(=O)Cn2c(-c3ccccc3Cl)c(Cl)nc(NCc3ccccc3)c2=O)cc1 [1515-04] | > 30 | 5.2 |  | 
42 | N=C(N)c1ccc(CNC(=O)Cn2c(-c3ccccc3)c(Cl)nc(NCc3cccc(F)c3)c2=O)cc1 [1507-42] | > 30 | 11.6 |  | 
43 | CCCCNc1nc(Cl)c(-c2ccccc2)n(CC(=O)NCc2ccc(C(=N)N)cc2)c1=O [1517-35] |  |  |  | IC50 or % Inhibition Factor Xa (30 µM) (Human factor Xa; % inhibition at 30 µM): 0%; IC50 or % Inhibition TF-VIIa (30 µM) (TF-VIIa; % inhibition at 30 µM): 33%
44 | COc1ccccc1-c1c(Cl)nc(NCc2ccccc2)c(=O)n1CC(=O)NCc1ccc(C(=N)N)cc1 [1515-02] | > 30 | 3.8 |  | 
45 | CCC(CC)Nc1nc(Cl)c(-c2cccc(N)c2)n(CC(=O)NCc2ccc(C(=N)N)cc2)c1=O [1526-11] | > 30 |  | 0.05 | 
46 | N=C(N)c1ccc(CNC(=O)Cn2c(-c3ccc(C(F)(F)F)cc3)c(Cl)nc(NC3CCC3)c2=O)cc1 [1515-20] | > 30 |  |  | IC50 or % Inhibition TF-VIIa (30 µM) (TF-VIIa): 32%
47 | N=C(N)c1ccc(CNC(=O)Cn2c(-c3ccccc3)cnc(NC(=O)Nc3cccc(N)c3)c2=O)cc1 [Example 107] |  |  | 0.57 | IC50 or % Inhibition Factor Xa (30 µM) (Human factor Xa; % inhibition at 30 µM): 35%
48 | N=C(N)c1ccc(CNC(=O)Cn2c(-c3ccccc3C(F)(F)F)c(Cl)nc(NCc3ccccc3)c2=O)cc1 [1515-12] | > 30 | 6.3 |  | 
49 | C[C@H](Nc1nc(Cl)c(-c2ccccc2)n(CC(=O)NCc2ccc(C(=N)N)cc2)c1=O)C1CCCCC1 [1522-43] | > 30 | 0.8 |  | 
50 | Nc1ccc(CNC(=O)Cn2c(CCc3ccccc3)c(Cl)nc(NCCc3ccccc3)c2=O)cn1 [Example 10, 3-(2-Phenylethylamino)-5-chloro-6-phenethyl-1-(2-amino-5-methylcarboxamidomethylpyridinyl)pyrazinone] |  |  |  | IC50 or % Inhibition Factor Xa (30 µM) (Human factor Xa; cells given as a plain number (IC50)): >0 µM
